{
  "source": "patent US11021446B2",
  "about": "(NOVARTIS AG, priority 2013, dated 2021)",
  "molecular_target": "T1, human Farnesoid X Receptor (FXR) ligand binding domain (GST-FXR LBD) (Homo sapiens, UniProt Q96RI1)",
  "T1 construct": "purchased Invitrogen",
  "T1 sequence (Q96RI1 193-472 isoform Q96RI1-2)": "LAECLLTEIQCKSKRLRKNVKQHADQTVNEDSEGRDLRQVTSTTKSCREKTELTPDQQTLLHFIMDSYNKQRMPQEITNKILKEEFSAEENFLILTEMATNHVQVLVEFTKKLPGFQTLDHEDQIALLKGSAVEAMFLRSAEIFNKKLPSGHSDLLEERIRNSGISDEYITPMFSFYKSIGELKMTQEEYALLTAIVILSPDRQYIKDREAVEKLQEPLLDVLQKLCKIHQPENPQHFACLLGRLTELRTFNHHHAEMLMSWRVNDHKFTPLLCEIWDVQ",
  "assay": "Human GST-FXR LBD co-activator interaction assay (FXR HTRF assay)",
  "assay_type": "biochemical",
  "settings": "GST-FXR LBD interaction with biotin-labeled SRC-1 peptide, FRET, response relative to GW4064, read-out: FXR coactivator interaction assay (HTRF)",
  "data": [
    {"smiles": "Cn1nc(C(=O)N(CCNc2cc(C(=O)O)ccc2F)Cc2ccccc2)c2c1-c1cc(F)ccc1OC2", "note": "[Compound 71, 3-((2-(N-benzyl-8-fluoro-1-methyl-1,4-dihydrochromeno[4,3-c]pyrazole-3-carboxamido)ethyl)amino)-4-fluorobenzoic acid]", "values": [
      {"measurement": "EC50", "value": 22, "unit": "nM"}
    ]},
    {"smiles": "Cn1nc(C(=O)N(CCOc2ccc(C(=O)O)cc2F)Cc2ccccc2F)c2c1-c1cc(F)ccc1OC2", "note": "[Compound 61, 3-fluoro-4-(2-(8-fluoro-N-(2-fluorobenzyl)-1-methyl-1,4-dihydrochromeno[4,3-c]pyrazole-3-carboxamido)ethoxy)benzoic Acid]", "values": [
      {"measurement": "EC50", "value": 89, "unit": "nM"}
    ]},
    {"smiles": "Cc1cccc(CN(CC(=O)Nc2cc(C(=O)O)ccc2F)C(=O)c2nn(C)c3c2COc2ccccc2-3)c1", "note": "[Compound 4, 4-fluoro-3-(2-(1-methyl-N-(3-methylbenzyl)-1,4-dihydrochromeno[4,3-c]pyrazole-3-carboxamido)acetamido)benzoic acid]", "values": [
      {"measurement": "EC50", "value": 0.75, "unit": "nM"}
    ]},
    {"smiles": "Cc1cc(Cl)cc2c1OCc1c(C(=O)N(CC(=O)Nc3cccc(C(=O)O)c3)Cc3ccccc3F)nn(C)c1-2", "note": "[Compound 14, 3-(2-(8-chloro-N-(2-fluorobenzyl)-1,6-dimethyl-1,4-dihydrochromeno[4,3-c]pyrazole-3-carboxamido)acetamido)benzoic acid]", "values": [
      {"measurement": "EC50", "value": 0.84, "unit": "nM"}
    ]},
    {"smiles": "Cn1nc(C(=O)N(CC(=O)NCC2(C(=O)O)CC2)Cc2ccccc2F)c2c1-c1cc(Cl)ccc1OC2", "note": "[Compound 42, 1-((2-(8-chloro-N-(2-fluorobenzyl)-1-methyl-1,4-dihydrochromeno[4,3-c]pyrazole-3-carboxamido)acetamido)methyl) cyclopropanecarboxylic acid]", "values": [
      {"measurement": "EC50", "value": 2.5, "unit": "nM"}
    ]},
    {"smiles": "Cc1cc(C(=O)O)ccc1OCCN(Cc1ccccc1F)C(=O)c1nn(C)c2c1COc1ccc(Cl)cc1-2", "note": "[Compound 46]", "values": [
      {"measurement": "EC50", "value": 3.2, "unit": "nM"}
    ]},
    {"smiles": "Cc1cccc2c1OCc1c(C(=O)N(CC(=O)Nc3cccc(C(=O)O)c3)Cc3ccccc3F)nn(C)c1-2", "note": "[Compound 6, 3-(2-(N-(2-fluorobenzyl)-1,6-dimethyl-1,4-dihydrochromeno[4,3-c]pyrazole-3-carboxamido)acetamido)benzoic acid]", "values": [
      {"measurement": "EC50", "value": 2.4, "unit": "nM"}
    ]},
    {"smiles": "Cn1nc(C(=O)N(Cc2ccc(C(=O)O)nc2)Cc2cccc(F)c2)c2c1-c1cc(Cl)ccc1OC2", "note": "[Compound 87, 5-((8-chloro-N-(3-fluorobenzyl)-1-methyl-1,4-dihydrochromeno[4,3-c]pyrazole-3-carboxamido)methyl)picolinic acid]", "values": [
      {"measurement": "EC50", "value": 28, "unit": "nM"}
    ]},
    {"smiles": "Cn1nc(C(=O)N(CC(=O)Nc2cccc(C(=O)O)c2)Cc2ccccc2F)c2c1-c1cc(F)ccc1OC2", "note": "[Compound 7, 3-(2-(8-fluoro-N-(2-fluorobenzyl)-1-methyl-1,4-dihydrochromeno[4,3-c]pyrazole-3-carboxamido)acetamido)benzoic acid]", "values": [
      {"measurement": "EC50", "value": 1, "unit": "nM"}
    ]},
    {"smiles": "Cc1ccc(C(=O)O)cc1NC(=O)CN(Cc1ccccc1F)C(=O)c1nn(C)c2c1COc1ccc(Cl)cc1-2", "note": "[Compound 30]", "values": [
      {"measurement": "EC50", "value": 0.6, "unit": "nM"}
    ]},
    {"smiles": "Cn1nc(C(=O)N(CCNc2cc(C(=O)O)ccc2F)Cc2ccccc2F)c2c1-c1ccccc1OC2", "note": "[Compound 70, 4-fluoro-3-((2-(N-(2-fluorobenzyl)-1-methyl-1,4-dihydrochromeno[4,3-c]pyrazole-3-carboxamido)ethyl)amino)benzoic acid]", "values": [
      {"measurement": "EC50", "value": 81, "unit": "nM"}
    ]},
    {"smiles": "Cn1nc(C(=O)N(Cc2ccc(C(=O)O)cc2)Cc2cccc(F)c2)c2c1-c1cc(Cl)ccc1OC2", "note": "[Compound 95, 4-((8-chloro-N-(3-fluorobenzyl)-1-methyl-1,4-dihydrochromeno[4,3-c]pyrazole-3-carboxamido)methyl)benzoic acid]", "values": [
      {"measurement": "EC50", "value": 3.5, "unit": "nM"}
    ]}
  ]
}
